Measurements: patent publication US11053218B2, “3-(1-oxoisoindolin-2-yl)piperidine-2,6-dione derivatives and uses thereof” (Novartis AG, priority 2017, dated 2021)
Read-outs that look alike come from different tables or passages of the source.

How the values were obtained:
IKZF2 = IKZF2 (Homo sapiens, UniProt Q96SW2+Q9UKS7); assay: Prolabel quantification of IKZF2 protein levels in 293GT cells; type: cell-based
Procedure: (§1) The Prolabel system from DiscoverX was used to develop high-throughput and quantitative assays to measure changes in IKZF1, IKZF2 and GSPT1 protein levels in response to compounds. The prolabel tag was derived from the alpha fragment of beta galactosidase and has the following protein sequence: mssnslavvlqrrdwenpgvtqlnrlaahppfaswrnseeartdrpsqqlrslnge. The complementary fragment of beta-galactosidase (from DiscoverX), is added to the prolabel tag to form an active beta galactosidase enzyme whose activity can be precisely measured. In this way, the levels of a fusion protein with the prolabel tag can be quantified in cell lysates.
(§2) Lentiviral vectors, based on the Invitrogen pLenti6.2/V5 DEST backbone, were constructed that placed the prolabel tag upstream of IKZF1, IKZF2 or GSPT1 and expressed the fusion protein from a CMV promoter.
(§3) To ensure moderate and consistent expression of the prolabel fusion proteins across all cells in the population, stable cell lines were constructed from cells expressing a single copy of the construct. Lentivirus packaged with the constructs was made using the Virapower kit from Invitrogen.
(§4) The levels of prolabel tagged fusion proteins in compound treated cell lines were measured as follows:
(§5) Day 1, Cells were diluted to 1.0×10^6 cells/ml in normal growth medium. 17.5 μL of cells were plated in each well of a solid white 384 well plate. Plates were incubated overnight in a 37° C. tissue culture incubator.
(§6) Day 2, Serial dilutions of compounds were made in 384 well plates from 10 mM stocks. 15 μL of DMSO was added to each well of a 384 well plate. In the first column 15 μL of stock compound was added. The solution was mixed and 15 μL was transferred to the next column. This was repeated until 20 two-fold dilutions were prepared. 2.5 μL of diluted compounds were transferred into 60 μL of cell culture medium in another 384 well plate, and mixed well. 2.5 μL of this mixture was added to the plated cells. The final DMSO concentration was 0.5% and the highest concentration of compound was 50 μM. Plates were incubated overnight (e.g., about 14 h, 18 h, or 24 h) in a 37° C. tissue culture incubator.
(§7) Day 3, Plates were removed from the incubator and allowed to equilibrate at rt for 30 minutes. Prolabel substrate (DiscoverX PathHunter Prolabel Detection Kit, User manual: 93-0180) was added as described by the manufacturers protocols. Plates were incubated at rt for three hours and luminescence was read using an Envision reader (Perkin Elmer) Data was analyzed and visualized using the Spotfire software package.

IKZF1 = IKZF1 (Homo sapiens, UniProt Q13422+Q96SW2); assay: Prolabel quantification of IKZF1 protein levels in 293GT cells; type: cell-based; conditions: Prolabel assay, read-out: IKZF1 EC50
IKZF1, sequence (Q13422 whole entry): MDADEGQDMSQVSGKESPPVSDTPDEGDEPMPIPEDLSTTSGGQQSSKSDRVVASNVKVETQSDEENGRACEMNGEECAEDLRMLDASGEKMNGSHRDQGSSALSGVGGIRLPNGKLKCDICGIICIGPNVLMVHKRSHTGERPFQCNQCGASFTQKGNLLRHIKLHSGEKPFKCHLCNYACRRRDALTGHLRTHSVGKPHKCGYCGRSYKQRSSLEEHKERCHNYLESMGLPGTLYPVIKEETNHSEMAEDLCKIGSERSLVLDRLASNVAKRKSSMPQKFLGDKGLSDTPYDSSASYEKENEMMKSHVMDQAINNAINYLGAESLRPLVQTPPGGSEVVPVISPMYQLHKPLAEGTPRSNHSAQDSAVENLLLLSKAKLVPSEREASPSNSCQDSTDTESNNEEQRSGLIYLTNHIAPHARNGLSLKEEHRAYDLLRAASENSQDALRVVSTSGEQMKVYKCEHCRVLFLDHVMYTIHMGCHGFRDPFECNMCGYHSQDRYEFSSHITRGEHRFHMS
IKZF1, sequence (Q96SW2 whole entry): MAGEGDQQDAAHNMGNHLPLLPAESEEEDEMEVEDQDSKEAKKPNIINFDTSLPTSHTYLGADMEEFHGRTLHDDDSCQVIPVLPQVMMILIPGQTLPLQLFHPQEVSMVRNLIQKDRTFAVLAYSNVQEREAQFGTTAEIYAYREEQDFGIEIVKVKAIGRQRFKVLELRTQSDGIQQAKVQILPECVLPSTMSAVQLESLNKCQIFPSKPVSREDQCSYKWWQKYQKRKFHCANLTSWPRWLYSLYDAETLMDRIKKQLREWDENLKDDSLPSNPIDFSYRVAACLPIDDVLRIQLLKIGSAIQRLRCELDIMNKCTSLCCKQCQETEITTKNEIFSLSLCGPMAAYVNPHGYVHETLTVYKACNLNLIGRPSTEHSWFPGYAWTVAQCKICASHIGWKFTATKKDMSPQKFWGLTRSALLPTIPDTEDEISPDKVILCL
IKZF1, sequence (Q16531 whole entry partner): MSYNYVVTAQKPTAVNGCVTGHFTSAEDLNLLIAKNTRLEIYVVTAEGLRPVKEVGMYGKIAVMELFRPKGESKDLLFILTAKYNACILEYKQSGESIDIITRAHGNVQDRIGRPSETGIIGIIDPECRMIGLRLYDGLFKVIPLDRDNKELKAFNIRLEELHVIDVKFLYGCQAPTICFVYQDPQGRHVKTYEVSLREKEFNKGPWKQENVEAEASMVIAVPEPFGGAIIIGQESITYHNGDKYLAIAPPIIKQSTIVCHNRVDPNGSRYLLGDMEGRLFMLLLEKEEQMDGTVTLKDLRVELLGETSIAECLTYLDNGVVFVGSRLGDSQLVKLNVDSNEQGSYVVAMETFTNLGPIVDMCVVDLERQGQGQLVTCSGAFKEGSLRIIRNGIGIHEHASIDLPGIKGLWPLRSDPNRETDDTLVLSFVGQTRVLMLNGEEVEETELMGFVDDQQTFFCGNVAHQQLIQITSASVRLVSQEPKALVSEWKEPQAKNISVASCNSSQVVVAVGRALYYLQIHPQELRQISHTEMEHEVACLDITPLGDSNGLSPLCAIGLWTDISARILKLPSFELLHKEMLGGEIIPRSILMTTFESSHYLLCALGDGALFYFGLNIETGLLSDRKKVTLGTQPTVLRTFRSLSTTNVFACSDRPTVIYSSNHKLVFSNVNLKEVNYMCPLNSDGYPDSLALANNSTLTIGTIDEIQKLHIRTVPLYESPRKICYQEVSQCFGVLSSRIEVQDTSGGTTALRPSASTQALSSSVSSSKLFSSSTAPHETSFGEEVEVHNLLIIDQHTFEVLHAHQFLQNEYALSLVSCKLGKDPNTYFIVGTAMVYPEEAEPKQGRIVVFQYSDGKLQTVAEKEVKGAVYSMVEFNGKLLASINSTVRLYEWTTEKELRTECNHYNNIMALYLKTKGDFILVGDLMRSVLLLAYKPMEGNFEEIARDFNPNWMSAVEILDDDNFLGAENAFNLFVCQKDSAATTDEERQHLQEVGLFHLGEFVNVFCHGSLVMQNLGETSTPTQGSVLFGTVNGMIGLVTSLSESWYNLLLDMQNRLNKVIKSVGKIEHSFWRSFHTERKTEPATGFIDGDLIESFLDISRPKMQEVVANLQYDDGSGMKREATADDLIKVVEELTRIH
Procedure: as §1, §2, §3, §4, §5, §6, §7

[1] = 24 h, 10 μM, 24 h, 293GT cells; read-out: IKZF2 % protein reduction at 10 μM, 24 h
[2] = Prolabel assay, 293GT cells; read-out: IKZF2 EC50

IKZF2, sequence (Q9UKS7 whole entry, the tested form may be a part): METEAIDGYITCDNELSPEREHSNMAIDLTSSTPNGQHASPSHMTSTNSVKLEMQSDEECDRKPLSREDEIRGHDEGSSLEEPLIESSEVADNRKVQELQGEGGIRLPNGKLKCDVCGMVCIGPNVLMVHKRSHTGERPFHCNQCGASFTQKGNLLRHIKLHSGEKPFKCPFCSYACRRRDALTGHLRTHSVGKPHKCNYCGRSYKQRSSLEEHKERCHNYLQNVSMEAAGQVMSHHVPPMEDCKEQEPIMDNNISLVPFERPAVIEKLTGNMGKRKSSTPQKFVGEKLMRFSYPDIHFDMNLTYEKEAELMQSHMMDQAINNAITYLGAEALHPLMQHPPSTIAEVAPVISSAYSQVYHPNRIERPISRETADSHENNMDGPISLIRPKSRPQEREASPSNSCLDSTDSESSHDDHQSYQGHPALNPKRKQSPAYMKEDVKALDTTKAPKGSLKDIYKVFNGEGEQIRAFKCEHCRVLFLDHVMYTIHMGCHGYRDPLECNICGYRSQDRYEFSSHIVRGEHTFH
IKZF2, sequence (Q96SW2 whole entry, the tested form may be a part): as the sequence (Q96SW2 whole entry) above
IKZF2, sequence (Q16531 whole entry partner, the tested form may be a part): as the sequence (Q16531 whole entry partner) above

SMILES	inhibition at 10 µM (IKZF2; [1])	DC50 (IKZF2; [2])	DC50 (IKZF1)	inhibition at 10 µM (IKZF2; 10 μM, 24 h, 293GT cells; read-out: IKZF2 % protein reduction at 10 μM, 24 h)
O=C1CCC(N2Cc3cc(C4CCN(Cc5cccc6c5OCCO6)CC4)ccc3C2=O)C(=O)N1 (stereo not drawn) [Compound I-82, 3-(5-(1-((2,3-dihydrobenzo[b][1,4]dioxin-5-yl)methyl)piperidin-4-yl)-1-oxoisoindolin-2-yl)piperidine-2,6-dione]	60%	0.004 µM	> 30 µM	
O=C1CCC(N2Cc3cc(C4CCN(Cc5ccc6c(c5)OCCO6)CC4)ccc3C2=O)C(=O)N1 (stereo not drawn) [Compound I-83, 3-(5-(1-((2,3-dihydrobenzo[b][1,4]dioxin-6-yl)methyl)piperidin-4-yl)-1-oxoisoindolin-2-yl)piperidine-2,6-dione]	80%	0.052 µM	> 30 µM	
CC(C)(C)c1ccc(CN2CCC(c3ccc4c(c3)CN(C3CCC(=O)NC3=O)C4=O)CC2)cc1 (stereo not drawn) [Compound I-84, 3-(5-(1-(4-(tert-butyl)benzyl)piperidin-4-yl)-1-oxoisoindolin-2-yl)piperidine-2,6-dione]		0.015 µM	> 30 µM	60%
O=C1CCC(N2Cc3cc(C4CCN(Cc5ccc6c(c5)OC(F)(F)O6)CC4)ccc3C2=O)C(=O)N1 (stereo not drawn) [Compound I-87, 3-(5-(1-((2,2-difluorobenzo[b][1,3]dioxol-5-yl)methyl)piperidin-4-yl)-1-oxoisoindolin-2-yl)piperidine-2,6-dione]	80%	0.013 µM	> 30 µM	
O=C1CCC(N2Cc3cc(C4CCN(Cc5ncccn5)CC4)ccc3C2=O)C(=O)N1 (stereo not drawn) [Compound I-95, 3-(1-oxo-5-(1-(pyrimidin-2-ylmethyl)piperidin-4-yl)isoindolin-2-yl)piperidine-2,6-dione]	20%	0.13 µM	> 30 µM	
O=C1CCC(N2Cc3cc(C4CCN(Cc5ccc(F)cc5F)CC4)ccc3C2=O)C(=O)N1 (stereo not drawn) [Compound I-101, 3-(5-(1-(2,4-difluorobenzyl)piperidin-4-yl)-1-oxoisoindolin-2-yl)piperidine-2,6-dione]	60%	0.017 µM	> 30 µM	
O=C1CCC(N2Cc3cc(C4CCN(Cc5ccccc5C5CC5)CC4)ccc3C2=O)C(=O)N1 (stereo not drawn) [Compound I-104, 3-(5-(1-(2-cyclopropylbenzyl)piperidin-4-yl)-1-oxoisoindolin-2-yl)piperidine-2,6-dione]	60%	0.005 µM	> 30 µM	
O=C1CCC(N2Cc3cc(C4CCN(Cc5ccccc5C(F)(F)F)CC4)ccc3C2=O)C(=O)N1 (stereo not drawn) [Compound I-106, 3-(1-oxo-5-(1-(2-(trifluoromethyl)benzyl)piperidin-4-yl)isoindolin-2-yl)piperidine-2,6-dione]	50%	0.014 µM	> 30 µM	
O=C1CCC(N2Cc3cc(C4CCN(Cc5cccc6cccnc56)CC4)ccc3C2=O)C(=O)N1 (stereo not drawn) [Compound I-114, 3-(1-oxo-5-(1-(quinolin-8-ylmethyl)piperidin-4-yl)isoindolin-2-yl)piperidine-2,6-dione]	40%	0.029 µM	> 50 µM	
Cn1cc(CN2CCC(c3ccc4c(c3)CN(C3CCC(=O)NC3=O)C4=O)CC2)cn1 (stereo not drawn) [Compound I-115, 3-(5-(1((1-methyl-1H-pyrazol-4-yl)methyl)piperidin-4-yl)-1-oxoisoindolin-2-yl)piperidine-2,6-dione]	60%	0.072 µM	> 30 µM	
O=C1CCC(N2Cc3cc(C4CCN(Cc5cn[nH]c5)CC4)ccc3C2=O)C(=O)N1 (stereo not drawn) [Compound I-116, 3-(5-(1-((1H-pyrazol-4-yl)methyl)piperidin-4-yl)-1-oxoisoindolin-2-yl)piperidine-2,6-dione]	60%	0.16 µM	> 30 µM	
Cn1ccc(CN2CCC(c3ccc4c(c3)CN(C3CCC(=O)NC3=O)C4=O)CC2)n1 (stereo not drawn) [Compound I-117, 3-(5-(1-((1-methyl-1H-pyrazol-3-yl)methyl)piperidin-4-yl)-1-oxoisoindolin-2-yl)piperidine-2,6-dione]	50%	0.05 µM	> 30 µM	
O=C1CCC(N2Cc3cc(C4CCN(Cc5cc[nH]c5)CC4)ccc3C2=O)C(=O)N1 (stereo not drawn) [Compound I-119, 3-(5-(1-((1H-pyrrol-3-yl)methyl)piperidin-4-yl)-1-oxoisoindolin-2-yl)piperidine-2,6-dione]	65%	0.14 µM	> 30 µM	
